# According to ChEMBL document CHEMBL2439975, “Aminopropyl carbazole analogues as potent enhancers of neurogenesis” (Bioorg Med Chem, 2013):
# Active and inactive are the calls of the source. No cut-off for these calls is given here.
# What was measured:
# NSC [1] = assay: Cytotoxicity against Sprague-Dawley rat embryo cortex NSC assessed as effect on morphology at 10 uM after 4 days by DAPI-based phase-contrast microscopy relative to DMSO-treated control; type: cell-based; details: 96 h
# NSC [2] = assay: Induction of differentiation of Sprague-Dawley rat embryo cortex NSC assessed as TUJ1-positive neurons at 5 uM after 4 days by immunostaining method relative to DMSO-treated control; type: functional
# NSC [3] = assay: Induction of neurogenesis of Sprague-Dawley rat embryo cortex NSC assessed as increase in beta3 tubulin mRNA expression at 5 uM after 4 days by RT-PCR method relative to DMSO-treated control; type: functional
# NSC [4] = assay: Neuroprotective activity against Sprague-Dawley rat embryo cortex NSC assessed as reduction of bax mRNA at 10 uM after 2 days by RT-PCR method relative to DMSO-treated control; type: functional, cell-based
# NSC [5] = assay: Neuroprotective activity against Sprague-Dawley rat embryo cortex NSC assessed as reduction of bcl2 mRNA at 10 uM after 2 days by RT-PCR method relative to DMSO-treated control; type: functional, cell-based
# NSC [6] = assay: Neuroprotective activity against Sprague-Dawley rat embryo cortex NSC assessed as […] of bcl2 to bax at 10 uM after 2 days by RT-PCR method relative to DMSO-treated control; type: functional, cell-based
# NSC [7] = assay: Cytotoxicity against Sprague-Dawley rat embryo cortex NSC assessed as shrinkage and rounding up of cells at 20 to 50 uM after 2 days by microscopy relative to DMSO-treated control in presence of EGF and FGF2; type: cell-based; details: 48 h
# NSC [8] = assay: Cytotoxicity against Sprague-Dawley rat embryo cortex NSC assessed as cell viability at 1 to 50 uM after 2 days by MTT assay relative to DMSO-treated control; type: cell-based; details: 48 h
# NSC [9] = assay: Neuroprotective activity against Sprague-Dawley rat embryo cortex NSC assessed as reduction of bax mRNA at 5 to 10 uM after 2 days by RT-PCR method relative to DMSO-treated control; type: functional, cell-based
# NSC [10] = assay: Neuroprotective activity against Sprague-Dawley rat embryo cortex NSC assessed as reduction of bcl2 mRNA at 5 to 10 uM after 2 days by RT-PCR method relative to DMSO-treated control; type: functional, cell-based
# NSC [11] = assay: Neuroprotective activity against Sprague-Dawley rat embryo cortex NSC assessed as […] of bcl2 to bax at 5 to 10 uM after 2 days by RT-PCR method relative to DMSO-treated control; type: functional, cell-based
# NSC [12] = assay: Antiproliferative activity against Sprague-Dawley rat embryo cortex NSC assessed as reduction in neurosphere volume at 5 to 10 uM after 5 days by neurosphere growth assay relative to DMSO-treated control in presence of EGF and FGF2; type: functional, cell-based
# NSC [13] = assay: Inhibition of astrocytogenesis of Sprague-Dawley rat embryo cortex NSC assessed as downregulation of hes1 mRNA expression after 4 days by RT-PCR method relative to DMSO-treated control; type: functional, cell-based
# NSC [14] = assay: Inhibition of astrocytogenesis of Sprague-Dawley rat embryo cortex NSC assessed as downregulation of notch1 mRNA expression after 4 days by RT-PCR method relative to DMSO-treated control; type: functional, cell-based
# NSC [15] = assay: Inhibition of astrocytogenesis of Sprague-Dawley rat embryo cortex NSC assessed as repression of gfap mRNA expression after 4 days by RT-PCR method relative to DMSO-treated control; type: functional, cell-based
# NSC [16] = assay: Induction of neurogenesis of Sprague-Dawley rat embryo cortex NSC assessed as increase in neuroD mRNA expression after 4 days by RT-PCR method relative to DMSO-treated control; type: functional, cell-based
# NSC [17] = assay: Induction of neurogenesis of Sprague-Dawley rat embryo cortex NSC assessed as increase in beta3 tubulin mRNA expression after 4 days by RT-PCR method relative to DMSO-treated control; type: functional, cell-based
# NSC [18] = assay: Induction of neurogenesis of Sprague-Dawley rat embryo cortex NSC assessed as effect on morphology at 10 uM after 4 days by DAPI-based phase-contrast microscopy relative to DMSO-treated control; type: functional, cell-based
Compound,fold change (FC) (NSC [2]),also measured
Cc1ccc(NCC(O)Cn2c3ccc(Br)cc3c3cc(Br)ccc32)cc1 (stereo not drawn),1.88,Activity (NSC [1]): Toxic
COc1cccc(NCC(F)Cn2c3ccccc3c3cc(Br)ccc32)c1 (stereo not drawn),0.86,
OC(CNc1ccc2c(c1)OCO2)Cn1c2ccc(Br)cc2c2cc(Br)ccc21 (stereo not drawn),0.88,
COc1cccc(NCC(Cn2c3ccc(Br)cc3c3cc(Br)ccc32)OC(C)=O)c1 (stereo not drawn),0.63,
COc1cccc(NCC(Cn2c3ccccc3c3ccccc32)OC(C)=O)c1 (stereo not drawn),0.39,
COc1ccc(NCC(O)Cn2c3ccc(Br)cc3c3cc(Br)ccc32)cc1OC (stereo not drawn),1.67,Activity (NSC [1]): Toxic; fold change (FC) (NSC [3]): 1.47
COc1cccc(NCC(Cn2c3ccc(Br)cc3c3cc(Br)ccc32)OC)c1 (stereo not drawn),0.96,
COc1cccc(OCC(O)Cn2c3ccc(Br)cc3c3cc(Br)ccc32)c1 (stereo not drawn),1.12,
COc1cccc(NCC(F)Cn2c3ccc(Br)cc3c3cc(Br)ccc32)c1 (stereo not drawn),1.16,Activity (NSC [4]): inactive; Activity (NSC [5]): Active; Activity (NSC [6]): Active; Activity (NSC [7]): Toxic; Activity (NSC [8]): Non-toxic
COc1cccc(OCC(F)Cn2c3ccc(Br)cc3c3cc(Br)ccc32)c1 (stereo not drawn),0.87,
COc1cccc(NCC(O)Cn2c3ccc(Br)cc3c3cc(Br)ccc32)c1 (stereo not drawn),1.16,
COc1cccc(NCC(F)Cn2c3ccccc3c3ccccc32)c1 (stereo not drawn),1.07,
OC(CNc1ccc(Cl)cc1)Cn1c2ccc(Br)cc2c2cc(Br)ccc21 (stereo not drawn),1.29,
COc1ccc(NCC(O)Cn2c3ccc(Br)cc3c3cc(Br)ccc32)cc1 (stereo not drawn),1.17,
COc1cccc(N(CC(O)Cn2c3ccc(Br)cc3c3cc(Br)ccc32)C(C)=O)c1 (stereo not drawn),1.25,
COc1cccc(N(Cc2ccccc2)CC(F)Cn2c3ccc(Br)cc3c3cc(Br)ccc32)c1 (stereo not drawn),0.58,
COc1cccc(N(Cc2ccccc2)CC(O)Cn2c3ccc(Br)cc3c3cc(Br)ccc32)c1 (stereo not drawn),0.57,
COc1cccc(N(CC(Cn2c3ccc(Br)cc3c3cc(Br)ccc32)OC(C)=O)S(=O)(=O)c2ccc(C)cc2)c1 (stereo not drawn),0.65,
COc1cccc(NCC(Cn2c3ccc(Br)cc3c3cc(Br)ccc32)OC(=O)OC(C)(C)C)c1 (stereo not drawn),1.25,
COc1cccc(N(CC(O)Cn2c3ccc(Br)cc3c3cc(Br)ccc32)S(=O)(=O)c2ccc(C)cc2)c1 (stereo not drawn),1.52,Activity (NSC [9]): Active; Activity (NSC [10]): Active; Activity (NSC [11]): Active; Activity (NSC [7]): Non-toxic; Activity (NSC [8]): Non-toxic; Activity (NSC [12]): Active; inhibition (NSC [13]): Dose-dependent effect; inhibition (NSC [14]): Dose-dependent effect; inhibition (NSC [15]): Dose-dependent effect; Activity (NSC [16]): Dose-dependent effect; Activity (NSC [17]): Dose-dependent effect; Activity (NSC [18]): Active; fold change (FC) (NSC [3]): 1.43
COc1cccc(NCC(=O)Cn2c3ccc(Br)cc3c3cc(Br)ccc32)c1,1.02,
COc1cccc(N(CC(=O)Cn2c3ccc(Br)cc3c3cc(Br)ccc32)S(=O)(=O)c2ccc(C)cc2)c1,0.52,
COc1cccc(N(CC(Cn2c3ccc(Br)cc3c3cc(Br)ccc32)OC)S(=O)(=O)c2ccc([N+](=O)[O-])cc2)c1 (stereo not drawn),0.92,
COc1cccc(N(CC(Cn2c3ccc(Br)cc3c3cc(Br)ccc32)OC)S(=O)(=O)c2ccc(C)cc2)c1 (stereo not drawn),0.73,
OC(CNc1ccccc1)Cn1c2ccc(Br)cc2c2cc(Br)ccc21 (stereo not drawn),1.47,
COc1cccc(N(C)CC(O)Cn2c3ccc(Br)cc3c3cc(Br)ccc32)c1 (stereo not drawn),1.42,
COc1cccc(NC/C(Cn2c3ccc(Br)cc3c3cc(Br)ccc32)=N\O)c1,1.13,
